Measured values taken from patent publication US20210300943A1, “OGA INHIBITOR COMPOUNDS” (Janssen Pharmaceutica NV, priority 2018, published 2021).

Target: T1, OGA (Mus musculus, UniProt Q9EQQ9)
T1 construct: from tissue; host or cells: mouse brain (right hemisphere sagittal sections, forebrain area)
T1 sequence (Q9EQQ9 1-916): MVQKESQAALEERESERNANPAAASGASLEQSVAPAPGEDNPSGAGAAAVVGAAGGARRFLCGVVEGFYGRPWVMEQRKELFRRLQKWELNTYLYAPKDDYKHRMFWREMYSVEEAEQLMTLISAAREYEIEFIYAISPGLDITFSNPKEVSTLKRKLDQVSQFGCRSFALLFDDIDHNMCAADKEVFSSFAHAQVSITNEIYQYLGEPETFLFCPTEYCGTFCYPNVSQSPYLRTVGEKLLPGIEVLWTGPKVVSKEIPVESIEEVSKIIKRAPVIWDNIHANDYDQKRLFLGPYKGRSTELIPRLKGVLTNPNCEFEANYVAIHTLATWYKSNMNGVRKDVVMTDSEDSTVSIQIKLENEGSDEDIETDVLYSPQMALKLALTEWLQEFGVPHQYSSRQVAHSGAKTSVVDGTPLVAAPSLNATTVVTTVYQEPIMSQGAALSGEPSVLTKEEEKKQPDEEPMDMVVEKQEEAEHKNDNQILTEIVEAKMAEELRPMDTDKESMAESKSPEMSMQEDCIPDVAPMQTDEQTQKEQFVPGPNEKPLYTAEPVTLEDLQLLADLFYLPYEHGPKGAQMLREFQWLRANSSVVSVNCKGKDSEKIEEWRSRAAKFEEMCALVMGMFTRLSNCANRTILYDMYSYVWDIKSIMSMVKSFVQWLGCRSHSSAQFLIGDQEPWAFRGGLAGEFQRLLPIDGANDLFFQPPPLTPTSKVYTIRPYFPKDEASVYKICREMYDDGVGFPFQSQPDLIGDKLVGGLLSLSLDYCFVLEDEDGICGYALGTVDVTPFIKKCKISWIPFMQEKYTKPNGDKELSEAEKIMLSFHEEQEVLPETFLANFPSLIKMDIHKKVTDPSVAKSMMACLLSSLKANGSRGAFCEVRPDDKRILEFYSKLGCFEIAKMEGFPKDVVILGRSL
Experiment: Ex vivo OGA occupancy assay using [3H]-ligand
Assay type: in vivo
Conditions: po, male NMRI or C57Bl6j mice, p.o., 24 h after administration, forebrain area of brain sections, 3 nM [3H]-ligand, normalised to vehicle, read-out: Occupancy (% +/- sd)
Protocol: Ex Vivo Oga Occupancy Assay Using [^3H]-Ligand
Drug Treatment and Tissue Preparation
Male NMRI or C57Bl6j mice were treated by oral (p.o.) administration of vehicle or compound. Animals were sacrificed 24 hours after administration. Brains were immediately removed from the skull, hemispheres were separated and the right hemisphere, for ex vivo OGA occupancy assay, was rapidly frozen in dry-ice cooled 2-methylbutane (−40° C.). […] sagittal sections were cut using a Leica CM 3050 cryostat-microtome (Leica, Belgium), thaw-mounted on microscope slides (SuperFrost Plus Slides, Thermo Fisher Scientific) and stored at −20° C. until use. After thawing, sections were dried under a cold stream of air. The sections were not washed prior to incubation. The 10 minutes incubation with 3 nM [^3H]-ligand was rigorously controlled. All brain sections (from compound-treated and vehicle-treated animals) were incubated in parallel. […]
Quantitative autoradiography and data analysis Radioactivity in the forebrain area of brain slices was measured using a β-imager with M3 vision analysis software (Biospace Lab, Paris). Specific binding was calculated as the difference between total binding and non-specific binding measured in Thiamet-G (10 μM) treated sections. […]

receptor occupancy at 25 mg/kg	Structure (SMILES)
20.7%	Cc1cc([C@H]2CCCN(C(C)c3cnc4c(c3)OCCN4)C2)cc(C)n1 (single isomer, unassigned) [Product 135]
92.7%	Cc1cc(OC[C@H]2CCCN(C(C)c3nc4c(cc3F)OCCO4)C2)cc(C)n1 (single isomer, unassigned) [Product 155]
